In PubChem BioAssay (NCI):
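Compound exposure: 48 hours, 5 concentrations, 96-well plates. TGI: total growth inhibition.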

Experiments:
Assay in all cases: NCI-60 cell line screen, 48 h
786-0 renal = tested on: 786-0 renal
A498 renal = tested on: A498 renal
A549 NSCLC = tested on: A549 NSCLC
ACHN renal = tested on: ACHN renal
CAKI-1 renal = tested on: CAKI-1 renal
CCRF-CEM leukemia = tested on: CCRF-CEM leukemia
COLO 205 colon = tested on: COLO 205 colon
DLD-1 colon = tested on: DLD-1 colon
DMS 114 small cell lung = tested on: DMS 114 small cell lung
EKVX NSCLC = tested on: EKVX NSCLC
HCT-116 colon = tested on: HCT-116 colon
HCT-15 colon = tested on: HCT-15 colon
HL-60(TB) leukemia = tested on: HL-60(TB) leukemia
HOP-62 NSCLC = tested on: HOP-62 NSCLC
HT29 colon = tested on: HT29 colon
IGROV1 ovarian = tested on: IGROV1 ovarian
K-562 leukemia = tested on: K-562 leukemia
KM12 colon = tested on: KM12 colon
KM20L2 colon = tested on: KM20L2 colon
LOX IMVI melanoma = tested on: LOX IMVI melanoma
LXFL 529 NSCLC = tested on: LXFL 529 NSCLC
M14 melanoma = tested on: M14 melanoma
M19-MEL melanoma = tested on: M19-MEL melanoma
MALME-3M melanoma = tested on: MALME-3M melanoma
MOLT-4 leukemia = tested on: MOLT-4 leukemia
NCI-H226 lung = tested on: NCI-H226 lung
NCI-H23 lung = tested on: NCI-H23 lung
NCI-H460 lung = tested on: NCI-H460 lung
NCI-H522 lung = tested on: NCI-H522 lung
OVCAR-3 ovarian = tested on: OVCAR-3 ovarian
OVCAR-4 ovarian = tested on: OVCAR-4 ovarian
OVCAR-5 ovarian = tested on: OVCAR-5 ovarian
OVCAR-8 ovarian = tested on: OVCAR-8 ovarian
RPMI-8226 leukemia = tested on: RPMI-8226 leukemia
RXF-631 renal = tested on: RXF-631 renal
SF-268 CNS = tested on: SF-268 CNS
SF-295 CNS = tested on: SF-295 CNS
SF-539 CNS = tested on: SF-539 CNS
SK-MEL-2 melanoma = tested on: SK-MEL-2 melanoma
SK-MEL-5 melanoma = tested on: SK-MEL-5 melanoma
SK-OV-3 ovarian = tested on: SK-OV-3 ovarian
SN12C renal = tested on: SN12C renal
SNB-19 CNS = tested on: SNB-19 CNS
SNB-78 CNS = tested on: SNB-78 CNS
SW-620 colon = tested on: SW-620 colon
TK-10 renal = tested on: TK-10 renal
U251 CNS = tested on: U251 CNS
UACC-257 melanoma = tested on: UACC-257 melanoma
UACC-62 melanoma = tested on: UACC-62 melanoma
XF 498 CNS = tested on: XF 498 CNS
HOP-18 NSCLC = tested on: HOP-18 NSCLC
HOP-92 NSCLC = tested on: HOP-92 NSCLC
RXF 393 renal = tested on: RXF 393 renal
SK-MEL-28 melanoma = tested on: SK-MEL-28 melanoma
SNB-75 CNS = tested on: SNB-75 CNS
SR leukemia = tested on: SR leukemia
UO-31 renal = tested on: UO-31 renal

SMILES: COC(=O)[C@]1(C)CCC[C@]2(C)C3CC4OOC3(C=C4C(C)(C)O)CCC21 (some centres undefined)
- TGI (786-0 renal): > 100 µM
- TGI (A498 renal): > 100 µM
- TGI (A549 NSCLC): > 100 µM
- TGI (ACHN renal): > 100 µM
- TGI (CAKI-1 renal): > 100 µM
- TGI (CCRF-CEM leukemia): 57.8 µM
- TGI (COLO 205 colon): > 100 µM
- TGI (DLD-1 colon): > 100 µM
- TGI (DMS 114 small cell lung): > 100 µM
- TGI (EKVX NSCLC): > 100 µM
- TGI (HCT-116 colon): > 100 µM
- TGI (HCT-15 colon): > 100 µM
- TGI (HL-60(TB) leukemia): 32 µM
- TGI (HOP-62 NSCLC): > 100 µM
- TGI (HT29 colon): 56.9 µM
- TGI (IGROV1 ovarian): > 100 µM
- TGI (K-562 leukemia): 64.3 µM
- TGI (KM12 colon): > 100 µM
- TGI (KM20L2 colon): > 100 µM
- TGI (LOX IMVI melanoma): > 100 µM
- TGI (LXFL 529 NSCLC): 65.6 µM
- TGI (M14 melanoma): > 100 µM
- TGI (M19-MEL melanoma): > 100 µM
- TGI (MALME-3M melanoma): > 100 µM
- TGI (MOLT-4 leukemia): 67.3 µM
- TGI (NCI-H226 lung): > 100 µM
- TGI (NCI-H23 lung): > 100 µM
- TGI (NCI-H460 lung): > 100 µM
- TGI (NCI-H522 lung): 47.3 µM
- TGI (OVCAR-3 ovarian): > 100 µM
- TGI (OVCAR-4 ovarian): > 100 µM
- TGI (OVCAR-5 ovarian): > 100 µM
- TGI (OVCAR-8 ovarian): > 100 µM
- TGI (RPMI-8226 leukemia): 37.3 µM
- TGI (RXF-631 renal): > 100 µM
- TGI (SF-268 CNS): > 100 µM
- TGI (SF-295 CNS): > 100 µM
- TGI (SF-539 CNS): > 100 µM
- TGI (SK-MEL-2 melanoma): > 100 µM
- TGI (SK-MEL-5 melanoma): > 100 µM
- TGI (SK-OV-3 ovarian): > 100 µM
- TGI (SN12C renal): > 100 µM
- TGI (SNB-19 CNS): > 100 µM
- TGI (SNB-78 CNS): > 100 µM
- TGI (SW-620 colon): > 100 µM
- TGI (TK-10 renal): > 100 µM
- TGI (U251 CNS): > 100 µM
- TGI (UACC-257 melanoma): > 100 µM
- TGI (UACC-62 melanoma): > 100 µM
- TGI (XF 498 CNS): 46.7 µM

SMILES: O=C1C(c2ccccc2)=[N+]([O-])c2ccc(Cl)cc21
- TGI (786-0 renal): > 100 µM
- TGI (A498 renal): > 100 µM
- TGI (A549 NSCLC): > 100 µM
- TGI (ACHN renal): 56.7 µM
- TGI (CCRF-CEM leukemia): > 100 µM
- TGI (COLO 205 colon): 28.9 µM
- TGI (DLD-1 colon): 51.3 µM
- TGI (DMS 114 small cell lung): 25.6 µM
- TGI (EKVX NSCLC): 47.3 µM
- TGI (HCT-116 colon): 34.7 µM
- TGI (HCT-15 colon): 64.2 µM
- TGI (HL-60(TB) leukemia): 38.5 µM
- TGI (HOP-18 NSCLC): > 100 µM
- TGI (HOP-62 NSCLC): > 100 µM
- TGI (HOP-92 NSCLC): 0.096 µM
- TGI (HT29 colon): 56.1 µM
- TGI (IGROV1 ovarian): 57 µM
- TGI (K-562 leukemia): > 100 µM
- TGI (KM12 colon): > 100 µM
- TGI (KM20L2 colon): > 100 µM
- TGI (LOX IMVI melanoma): 32.7 µM
- TGI (LXFL 529 NSCLC): 34.9 µM
- TGI (M14 melanoma): > 100 µM
- TGI (M19-MEL melanoma): 42.1 µM
- TGI (MALME-3M melanoma): 61.8 µM
- TGI (MOLT-4 leukemia): 81.6 µM
- TGI (NCI-H226 lung): 49.9 µM
- TGI (NCI-H23 lung): > 100 µM
- TGI (NCI-H460 lung): > 100 µM
- TGI (NCI-H522 lung): 31 µM
- TGI (OVCAR-3 ovarian): 59.9 µM
- TGI (OVCAR-5 ovarian): 61.5 µM
- TGI (OVCAR-8 ovarian): 30.5 µM
- TGI (RPMI-8226 leukemia): > 100 µM
- TGI (RXF 393 renal): 29.1 µM
- TGI (RXF-631 renal): 86.2 µM
- TGI (SF-268 CNS): 62.4 µM
- TGI (SF-295 CNS): > 100 µM
- TGI (SF-539 CNS): 38.5 µM
- TGI (SK-MEL-2 melanoma): > 100 µM
- TGI (SK-MEL-28 melanoma): 48.8 µM
- TGI (SK-MEL-5 melanoma): 35.2 µM
- TGI (SK-OV-3 ovarian): > 100 µM
- TGI (SN12C renal): 67.4 µM
- TGI (SNB-19 CNS): > 100 µM
- TGI (SNB-75 CNS): > 100 µM
- TGI (SR leukemia): > 100 µM
- TGI (SW-620 colon): 93.3 µM
- TGI (TK-10 renal): 77.9 µM
- TGI (U251 CNS): 65.1 µM
- TGI (UACC-257 melanoma): 46.8 µM
- TGI (UACC-62 melanoma): 35 µM
- TGI (UO-31 renal): > 100 µM
- TGI (XF 498 CNS): 35.8 µM
